# Source: patent publication USRE48711E1, “Apoptosis signal-regulating kinase inhibitors” (Gilead Sciences, Inc., priority 2009, dated 2021)
# Target: ASK1 (Apoptosis Signal-Regulating Kinase 1) (Homo sapiens (Human), UniProt Q99683)
# Test: ASK1 (Apoptosis Signal-Regulating Kinase 1) TR-FRET Kinase Assay (Biochemical IC50)
# Settings: TR-FRET, biotin-MBP substrate, 20 min pre-incubation, ATP added as 300 μM solution
# Sequence of ASK1 (Apoptosis Signal-Regulating Kinase 1) (Q99683 649-946): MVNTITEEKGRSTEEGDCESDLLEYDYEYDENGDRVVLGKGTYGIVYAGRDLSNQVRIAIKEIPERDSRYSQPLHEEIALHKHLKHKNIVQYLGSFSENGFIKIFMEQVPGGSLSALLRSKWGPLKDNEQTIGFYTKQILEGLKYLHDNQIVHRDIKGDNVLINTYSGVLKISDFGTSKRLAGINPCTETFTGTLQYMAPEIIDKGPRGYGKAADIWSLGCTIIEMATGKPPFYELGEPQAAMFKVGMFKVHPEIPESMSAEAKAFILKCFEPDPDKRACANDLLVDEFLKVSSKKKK
row,Structure (SMILES),IC50 [nM]
1,"O=C(Nc1cccc(-c2nncn2C2CC2)c1)c1cc(-c2ccc(C3CC3)cc2)ccn1 [Example 129, N-(3-(4-cyclopropyl-4H-1,2,4-triazol-3-yl)phenyl)-4-(4-cyclopropylphenyl)picolinamide]",22
2,"O=C(Nc1cccc(-c2nncn2C2CC2)n1)c1cccc(-c2cccnc2)c1 [Example 130, N-(6-(4-cyclopropyl-4H-1,2,4-triazol-3-yl)pyridin-2-yl)-3-(pyridin-3-yl)benzamide]",12
3,"O=C(Nc1cccc(-c2nncn2C2CC2)c1)c1cc(-c2cnc(C3CC3)c(Cl)c2)ccn1 [Example 135, 5-chloro-6-cyclopropyl-N-(3-(4-cyclopropyl-4H-1,2,4-triazol-3-yl)phenyl)-3,4′-bipyridine-2′-carboxamide]",131
4,"COCCNc1ccc(-c2ccnc(C(=O)Nc3cccc(-c4nncn4C4CC4)c3)c2)cn1 [Example 136, N-(3-(4-cyclopropyl-4H-1,2,4-triazol-3-yl)phenyl)-6-(2-methoxyethylamino)-3,4′-bipyridine-2′-carboxamide]",7
5,"CS(=O)(=O)N1CCN(c2ccnc(C(=O)Nc3cccc(-c4nncn4C4CC4)c3)c2)CC1 [Example 137, N-(3-(4-cyclopropyl-4H-1,2,4-triazol-3-yl)phenyl)-4-(4-(methylsulfonyl)piperazin-1-yl)picolinamide]",31
6,"O=C(Nc1cccc(-c2nncn2C2CC2)c1)c1cc(-c2ccc(C3CC3)nc2)ncn1 [Example 144, N-(3-(4-cyclopropyl-4H-1,2,4-triazol-3-yl)phenyl)-6-(6-cyclopropylpyridin-3-yl)pyrimidine-4-carboxamide]",14
7,"O=C(Nc1ccc(F)c(-c2nncn2C2CC2)c1)c1cc(-c2ccc(C3CC3)nc2)ccn1 [Example 147, 6-cyclopropyl-N-(3-(4-cyclopropyl-4H-1,2,4-triazol-3-yl)-4-fluorophenyl)-3,4′-bipyridine-2′-carboxamide]",400
8,"CCc1ccc(-c2ccnc(C(=O)Nc3ccc(F)c(-c4nncn4C4CC4)c3)c2)cn1 [Example 148, N-(3-(4-cyclopropyl-4H-1,2,4-triazol-3-yl)-4-fluorophenyl)-6-ethyl-3,4′-bipyridine-2′-carboxamide]",56
9,"O=C(Nc1cccc(-c2nncn2C2CC2)n1)c1cccc(-c2cnc3ccccc3c2)c1 [Example 150, N-(6-(4-cyclopropyl-4H-1,2,4-triazol-3-yl)pyridin-2-yl)-3-(quinolin-3-yl)benzamide]",17
10,"O=C(Nc1cccc(-c2nncn2C2CC2)n1)c1cccc(-c2ccc(C3CC3)nc2)c1 [Example 151, N-(6-(4-cyclopropyl-4H-1,2,4-triazol-3-yl)pyridin-2-yl)-3-(6-cyclopropylpyridin-3-yl)benzamide]",8
11,"O=C(Nc1ccnc(-c2nncn2C2CC2)c1)c1cc(-c2ccc(C3CC3)nc2)ccn1 [Example 152, 6-cyclopropyl-N-(2-(4-cyclopropyl-4H-1,2,4-triazol-3-yl)pyridin-4-yl)-3,4′-bipyridine-2′-carboxamide]",286
12,"O=C(Nc1ccnc(-c2nncn2C2CC2)c1)c1cc(-c2cnc3ccccc3c2)ccn1 [Example 153, N-(2-(4-cyclopropyl-4H-1,2,4-triazol-3-yl)pyridin-4-yl)-4-(quinolin-3-yl)picolinamide]",409
13,"O=C(Nc1cccc(-c2nncn2C2CC2)c1)c1cc(-c2cnc3c(c2)CNCC3)ccn1 [Example 154, N-(3-(4-cyclopropyl-4H-1,2,4-triazol-3-yl)phenyl)-4-(5,6,7,8-tetrahydro-1,6-naphthyridin-3-yl)picolinamide]",34
14,"O=C(Nc1cccc(-c2nncn2C2CC2)c1F)c1cc(-c2ccc(C3CC3)nc2)ccn1 [Example 155, 6-cyclopropyl-N-(3-(4-cyclopropyl-4H-1,2,4-triazol-3-yl)-2-fluorophenyl)-3,4′-bipyridine-2′-carboxamide]",10
15,"O=C(Nc1cccc(-c2nncn2C2CC2)c1)c1cc(-c2cncc(C3CC3)c2)ccn1 [Example 156, 5-cyclopropyl-N-(3-(4-cyclopropyl-4H-1,2,4-triazol-3-yl)phenyl)-3,4′-bipyridine-2′-carboxamide]",11
16,"O=C(Nc1cccc(-c2nncn2C2CC2)c1F)c1cc(-c2cccnc2)ccn1 [Example 157, N-(3-(4-cyclopropyl-4H-1,2,4-triazol-3-yl)-2-fluorophenyl)-3,4′-bipyridine-2′-carboxamide]",38
17,"CCc1cn(-c2ccnc(C(=O)Nc3cccc(-c4nncn4C4CC4)c3)c2)cn1 [Example 158, N-(3-(4-cyclopropyl-4H-1,2,4-triazol-3-yl)phenyl)-4-(4-ethyl-1H-imidazol-1-yl)picolinamide]",5
18,"Cc1cn(-c2ccnc(C(=O)Nc3cccc(-c4nncn4C4CC4)n3)c2)cn1 [Example 159, N-(6-(4-cyclopropyl-4H-1,2,4-triazol-3-yl)pyridin-2-yl)-4-(4-methyl-1H-imidazol-1-yl)picolinamide]",3
19,"Cc1ncn(-c2ccnc(C(=O)Nc3cccc(-c4nncn4C4CC4)n3)c2)c1C [Example 160, N-(6-(4-cyclopropyl-4H-1,2,4-triazol-3-yl)pyridin-2-yl)-4-(4,5-dimethyl-1H-imidazol-1-yl)picolinamide]",4
20,"O=C(Nc1cccc(-c2nncn2C2CC2)c1)c1cc(-c2cnc3c(c2)CN(CC(F)(F)F)CC3)ccn1 [Example 161, N-(3-(4-cyclopropyl-4H-1,2,4-triazol-3-yl)phenyl)-4-(6-(2,2,2-trifluoroethyl)-5,6,7,8-tetrahydro-1,6-naphthyridin-3-yl)picolinamide]",9
21,"CC(C)c1cn(-c2ccnc(C(=O)Nc3cccc(-c4nncn4C4CC4)c3)c2)cn1 [Example 163, N-(3-(4-cyclopropyl-4H-1,2,4-triazol-3-yl)phenyl)-4-(4-isopropyl-1H-imidazol-1-yl)picolinamide]",4
22,"O=C(Nc1cc(-c2nncn2C2CC2)ccn1)c1cc(-c2cccnc2)ccn1 [Example 164, N-(4-(4-cyclopropyl-4H-1,2,4-triazol-3-yl)pyridin-2-yl)-3,4′-bipyridine-2′-carboxamide]",18

# Further lines, results first:
row,IC50 [nM],Structure (SMILES)
1,6,"O=C(Nc1cccc(-c2nncn2C2CC2)c1)c1cc(-c2cnc3cc[nH]c3c2)ccn1 [Example 128, N-(3-(4-cyclopropyl-4H-1,2,4-triazol-3-yl)phenyl)-4-(1H-pyrrolo[3,2-b]pyridin-6-yl)picolinamide]"
2,11,"CSc1ccc(-c2ccnc(C(=O)Nc3cccc(-c4nncn4C4CC4)c3)c2)cn1 [Example 131, N-(3-(4-cyclopropyl-4H-1,2,4-triazol-3-yl)phenyl)-6-(methylthio)-3,4′-bipyridine-2′-carboxamide]"
3,150,"CC(C)CSc1ccc(-c2ccnc(C(=O)Nc3cccc(-c4nncn4C4CC4)c3)c2)cn1 [Example 132, N-(3-(4-cyclopropyl-4H-1,2,4-triazol-3-yl)phenyl)-6-(isobutylthio)-3,4′-bipyridine-2′-carboxamide]"
4,10,"O=C(Nc1cccc(-c2nncn2C2CC2)c1)c1cc(-c2cnc(C3CC3)cn2)ccn1 [Example 133, N-(3-(4-cyclopropyl-4H-1,2,4-triazol-3-yl)phenyl)-4-(5-cyclopropylpyrazin-2-yl)picolinamide]"
5,34,"O=C(Nc1cccc(-c2nncn2C2CC2)c1)c1cc(-c2cnc(C3CC3)c(F)c2)ccn1 [Example 134, 6-cyclopropyl-N-(3-(4-cyclopropyl-4H-1,2,4-triazol-3-yl)phenyl)-5-fluoro-3,4′-bipyridine-2′-carboxamide]"
6,8,"CCc1ncc(-c2ccnc(C(=O)Nc3cccc(-c4nncn4C4CC4)c3)c2)cc1F [Example 138, N-(3-(4-cyclopropyl-4H-1,2,4-triazol-3-yl)phenyl)-6-ethyl-5-fluoro-3,4′-bipyridine-2′-carboxamide]"
7,16,"CCc1ncc(-c2ccnc(C(=O)Nc3cccc(-c4nncn4C4CC4)c3)c2)cc1Cl [Example 139, 5-chloro-N-(3-(4-cyclopropyl-4H-1,2,4-triazol-3-yl)phenyl)-6-ethyl-3,4′-bipyridine-2′-carboxamide]"
8,13,"CCc1cc(-c2ccnc(C(=O)Nc3cccc(-c4nncn4C4CC4)c3)c2)cnc1CC [Example 141, N-(3-(4-cyclopropyl-4H-1,2,4-triazol-3-yl)phenyl)-5,6-diethyl-3,4′-bipyridine-2′-carboxamide]"
9,11,"O=C(Nc1cccc(-c2nncn2C2CC2)c1)c1cc(-c2cnc3ccoc3c2)ccn1 [Example 142, N-(3-(4-cyclopropyl-4H-1,2,4-triazol-3-yl)phenyl)-4-(furo[3,2-b]pyridin-6-yl)picolinamide]"
10,15,"Cn1cnc2cc(-c3ccnc(C(=O)Nc4cccc(-c5nncn5C5CC5)c4)c3)cnc21 [Example 143, N-(3-(4-cyclopropyl-4H-1,2,4-triazol-3-yl)phenyl)-4-(3-methyl-3H-imidazo[4,5-b]pyridin-6-yl)picolinamide]"
11,7,"CCc1ncc(-c2ccnc(C(=O)Nc3cccc(-c4nncn4C4CC4)c3)c2)cn1 [Example 145, N-(3-(4-cyclopropyl-4H-1,2,4-triazol-3-yl)phenyl)-4-(2-ethylpyrimidin-5-yl)picolinamide]"
12,8,"CCc1cncc(-c2ccnc(C(=O)Nc3cccc(-c4nncn4C4CC4)c3)c2)c1 [Example 146, N-(3-(4-cyclopropyl-4H-1,2,4-triazol-3-yl)phenyl)-5-ethyl-3,4′-bipyridine-2′-carboxamide]"
13,25,"CC(C)(C)c1ccc(-c2ccnc(C(=O)Nc3cccc(-c4nncn4C4CC4)c3)c2)cn1 [Example 149, 6-tert-butyl-N-(3-(4-cyclopropyl-4H-1,2,4-triazol-3-yl)phenyl)-3,4′-bipyridine-2′-carboxamide]"
14,5,"CC(C)(O)c1ccc(-c2ccnc(C(=O)Nc3cccc(-c4nncn4C4CC4)c3)c2)cn1 [Example 165, N-(3-(4-cyclopropyl-4H-1,2,4-triazol-3-yl)phenyl)-6-(2-hydroxypropan-2-yl)-3,4′-bipyridine-2′-carboxamide]"
